Tests used:
Assay type in all cases: cell-based
MIHA = assay: Mammalian cell cytotoxicity assay (MTT), MIHA; conditions: at 16 folded MIC (50 μM compound 8, 12.5 μM compound 35)
Description: FIGS. 2A-2B are the bar graphs showing the cytotoxicity of compound 8 (FIG. 2A) and compound 35 (FIG. 2B) towards mammalian cell NIH3T3, MDCK and MIHA. % survival is mean±S.D normalized to DMSO as the negative control of a representative experiment. Biological triplicates were conducted.
In the treated culture dish, cells were washed by PBS and then trypsinized. DMEM was added to quench the reaction. Cells were centrifuged and resuspended into fresh DMEM. Cells were then seeded in 96-well microtitre plate (100 μL, 5000 cells per well) for 24 hours before addition of compounds. The compounds were two-fold serial diluted by DMSO in a DMSO-compatible 96-well plate. 1 μL of compound in DMSO is transferred into the 96-well microtitre preparation plate containing 100 μL DMEM medium. The medium in culture plate was removed and compounds in preparation plate were transferred to culture plate. Equal volume of DMSO was used as negative control.
After 24 hours of incubation of cells, cell viability was measured by MTT assay. In MTT assay, 20 μL 5 mg/mL MTT solution in PBS was added to cell medium and cultured for 3 hours. The medium was then removed and 50 μL DMSO was added and cultured for 10 minutes. Absorbance at 595 nm was measured spectrophotometrically (Beckman Coulter DTX 880 Multimode Detector) and normalized to DMSO group. Biological replicates were performed.

[1] = system: Staphylococcus aureus ATCC 29213 persister; assay: Killing of Staphylococcus aureus persister; conditions: 10×MIC, persisters enriched with ciprofloxacin
Text: FIG. 4 is a line graph showing the killing kinetics of the compound 8 and compound 35 towards Staphylococcus aureus persister compared to the conventional antibiotics. […] Data were representative of 3 independent experiments±S.D.
Persisters are the phenotypic variants of the normal bacteria with reduced metabolism. They highly tolerate to the conventional […]. Persisters was enriched by the addition of 100-fold minimum inhibitory concentration of bactericidal antibiotics ciprofloxacin to the stationary phase bacteria. After 24 hours' culture, ciprofloxacin was removed. Persisters were treated with compound 8, compound 35 or different conventional antibiotics.
S. aureus ATCC 29213 cells were sub-cultured from an overnight culture in CAMH 1:100 for 24 hours at 37° C. with 250 rpm shaking speed. Persisters were prepared by addition of ciprofloxacin hydrochloride (25 μg/mL, 100×MIC in Staphylococcus aureus ATCC 29213) and cultured for 24 hours at 37° C. with 250 rpm shaking speed. Persisters were washed by PBS (12,000×g, 3 minutes) and resuspended in PBS+1% CAMH medium (same volume as original culture). 1 mL portions were aliquoted into fresh culture tubes, and different antibiotics or DMSO (1% maximum concentration) were added, followed by incubation at 37° C. with 250 rpm shaking speed. […]

[2] = system: pre-established Staphylococcus aureus ATCC 35556 biofilm; assay: Reduction of established biofilm (crystal violet); conditions: 24 hours pre-established biofilm treated 24 hours, concentration dependent
Description: 24 hours pre-established Staphylococcus. aureus ATCC 35556 biofilm was treated with various concentrations of compound 8, compound 35 or 1% DMSO as negative control for 24 hours. Biofilm was quantified using crystal violet. The data were normalized to DMSO (100% biofilm) and represent average values±S.D. (n=9 per group). Statistical analysis was performed by ANOVA with Dunnett's post-test to calculate p-values adjusted for multiple comparisons with DMSO as control condition (*p<0.05; **p<0.01; ***p<0.001).
Briefly, overnight cultures of Staphylococcus aureus ATCC 35556 in TSB were diluted 1:100 and regrow for 2.5 hours at 37° C., 250 rpm. The bacteria were diluted 1:100 into fresh TSB and 200 μL bacteria in TSB was added to each well of a flat-bottom 96-well plate (200 μL/well). The plate was incubated at 37° C. for 24 hours to establish biofilms. After 24 hours, the supernatant was removed and washed by PBS (200 μL) 2 times. Premixed solution of TSB and compound was prepared in a separate 96-well-plate (200 μL/well; two-folded serial dilutions; final DMSO concentration of maximum 1%). 200 μL compound in TSB was transferred to the plates with established biofilms. […] Following a 1:4 dilution step (33% acetic acid), the optical density was measured at 595 nm by Beckman Coulter DTX 880 Multimode Detector. […]

[3] = system: Staphylococcus aureus ATCC 29213; assay: Autolysis, optical density of culture; conditions: 10×MIC, 24 hours
Description: Staphylococcus aureus ATCC 29213 in CAMH was challenged with […] compounds 8 or compound 35. OD595 was measured after 24 hours. Data represented the mean±S.D. of biological triplicates. Statistical analysis was performed by unpaired t test in 95% confidence interval (*=p<0.05; **p<0.01; ***p<0.001; ****[…]).
The overnight culture of Staphylococcus aureus ATCC 29213 was subcultured, regrown to exponential phase and then diluted to OD595=0.4. Bacteria were treated by 10×MIC of compound 8 and compound 35. At T=24 hour, OD595 was measured.

Compound | toxicity against mammalian cell MIHA (MIHA) | bactericidal effect on Staphylococcus aureus persister [1] | established Staphylococcus aureus biofilm [2] | optical density (OD595) of culture, accelerated autolysis [3]
CC(C)C[C@H](ONC(=O)[C@@H](COCc1ccccc1)ONC(=O)c1cc(C(F)(F)F)cc(C(F)(F)F)c1)C(=O)Nc1ccccc1 [Compound 8] | minimal toxicity | can eradicate the Staphylococcus aureus persister | significantly reduced | reduction of the optical density
CC(C)C[C@H](ONC(=O)[C@@H](COCc1ccccc1)ONC(=O)c1cc(C(F)(F)F)cc(C(F)(F)F)c1)C(=O)Nc1ccc2c(c1)OC(F)(F)O2 [Compound 35] | minimal toxicity | can eradicate the Staphylococcus aureus persister | significantly reduced | reduction of the optical density
